# Values joined by “and” are separate entries in the source; they are usually repeats but may differ in a detail not shown here. Equal values may be shown once.
# How the values were obtained:
# [1] = system: Zika virus; test: EC50 is reported via analysis of immunofluorescence staining. The assay has been performed by Icahn School of Medicine at Mount Sinai.; format: functional, organism-based, Chlorocebus sabaeus, VeroE6/TMPRSS2; conditions: for EC90: P-gp concentration 2 uM, P-gp inhibitor Elacidar
# [2] = system: Zika virus; test: Functional CPE-based assay to measure dose dependent changes in antiviral-drug inhibitory efficacy against Zika virus MR766 in Vero E6 miRFP670 cells (cotreated with P-gp inhibitor, CP100356). Cells are treated with antiviral candidates that are serially diluted. EC50 is reported via analysis of MTS assay as a readout of CPE. The assay has been performed by KU Leuven.; format: organism-based, Chlorocebus sabaeus, Vero C1008; conditions: Zika virus; for EC90: P-gp concentration 500 nM, P-gp inhibitor CP100356
# [3] = system: dengue virus type 2; test: Functional immunofluorescence assay to measure dose dependent changes in antiviral-drug inhibitory efficacy against Dengue virus type 2 Thailand/16681/84 in Vero E6/TMPRSS2 cells (cotreated with P-gp inhibitor, Elacridar). Cells are treated with antiviral candidates that are serially diluted, following infection, cells are fixed. EC50 is reported via analysis of immunofluorescence staining. The assay has been performed by Icahn School of Medicine at Mount Sinai.; format: organism-based, Chlorocebus sabaeus, VeroE6/TMPRSS2
# [4] = system: dengue virus type 2; test: Functional assay to measure dose dependent changes in antiviral-drug inhibitory efficacy against Dengue virus type 2 New Guinea C in Vero E6 miRFP670 cells (cotreated with P-gp inhibitor, CP100356). Cells are treated with antiviral candidates that are serially diluted, following infection, cells are fixed. EC50 is reported via analysis of fluorescence intensity using high-content imager. The …; format: organism-based, Chlorocebus sabaeus, Vero C1008; conditions: Dengue virus; for EC90: P-gp concentration 500 nM, P-gp inhibitor CP100356
structure (smiles),measurement,setting,value
CNC(=O)[C@H](Nc1ccc2c(c1)CNC2)c1cc(Cl)cc(C2CC2)c1,EC90,"[1]; Zika virus, VeroE6/TMPRSS2, Maximum measured 135.998 %, Minimum measured 64.507 %",> 16.7 µM
same,EC90,"[1]; Zika virus, VeroE6/TMPRSS2, Baseline response 0 %, Hill slope -0.359, Maximum measured 94.864 %, Maximum response 100 %, Minimum measured 60.283 %, R squared 0.436",> 5.56 µM
same,EC50,[1]; veroe6/tmprss2,> 16.7 µM
same,EC50,[2]; Vero C1008,3.04 µM
same,EC90,"[2]; Vero C1008, Baseline response 0 %, EC90 CI (lower) 0.152 uM, EC90 CI (upper) 118.856 uM, Hill slope 6.595, Maximum measured 181.208 %, Maximum response 100 %, Minimum measured 1.929 %, R squared 0.623",4.25 µM
same,EC50,"[3]; Dengue virus, VeroE6/TMPRSS2",> 50 µM
same,EC90,"[3]; Dengue virus, VeroE6/TMPRSS2, Maximum measured 162.297 %, Minimum measured 85.868 %, P-gp concentration 2 uM, P-gp inhibitor Elacidar",> 50 µM
O=C(Nc1cc(Cl)cc([C@H]2CN(Cc3ccccc3)C[C@@H]2c2cccc(-c3nn[nH]n3)c2)c1)OCc1ccccc1,EC50,[4]; Vero C1008,7.89 µM
same,EC90,"[4]; Vero C1008, Baseline response 0 %, EC90 CI (lower) 5.235 uM, EC90 CI (upper) 7.261 uM, Hill slope -8.911, Maximum measured 94.205 %, Maximum response 100 %, Minimum measured 1.534 %, R squared 0.94",10.1 µM
same,EC50,"[1]; Zika virus, VeroE6/TMPRSS2",7.98 µM
same,EC90,"[1]; Zika virus, VeroE6/TMPRSS2, Baseline response 15.017 %, Hill slope -78.318, Maximum measured 79.355 %, Maximum response 65.758 %, Minimum measured 8.182 %, R squared 0.629",8.21 µM
same,EC50,"[3]; Dengue virus, VeroE6/TMPRSS2",3.42 µM
same,EC90,"[3]; Dengue virus, VeroE6/TMPRSS2",5.71 µM
O=C(NC1CCOCC1)[C@H](Nc1ccc2c(c1)CNC2)c1cc(Cl)cc(C2CC2)c1,EC50,[4]; Vero C1008,36 µM
same,EC90,"[4]; Vero C1008, Baseline response 0 %, Hill slope -0.982, Maximum measured 114.445 %, Maximum response 100 %, Minimum measured 34.266 %, R squared 0.594",> 50 µM
same,EC90,"[1]; Baseline response 0 %, Hill slope -0.296, Maximum measured 102.901 %, Maximum response 100 %, Minimum measured 72.878 %, R squared 0.169",> 16.7 µM
same,EC90,"[1]; Baseline response 0 %, Hill slope -0.385, Maximum measured 147.213 %, Maximum response 4776.39 %, Minimum measured 30.718 %, R squared 0.741",< 0.023 µM
same,EC50,[2]; Vero C1008,3.19 µM
same,EC90,"[2]; Vero C1008, Baseline response 0 %, EC90 CI (lower) 0.059 uM, EC90 CI (upper) 333.672 uM, Hill slope 6.678, Maximum measured 170.178 %, Maximum response 100 %, Minimum measured 3.055 %, R squared 0.499",4.44 µM
same,EC50,"[3]; Dengue virus, VeroE6/TMPRSS2",> 5.56 µM
same,EC90,"[3]; Dengue virus, VeroE6/TMPRSS2, Maximum measured 137.73 %, Minimum measured 84.756 %, P-gp concentration 2 uM, P-gp inhibitor Elacidar",> 5.56 µM
O=C(Nc1ccc2c(c1)CNC2)c1cc(Br)cc2[nH]c(Cc3ccccc3)nc12,EC50,[4]; Vero C1008,2.23 µM
same,EC90,"[4]; Vero C1008, Baseline response 0 %, Hill slope -0.825, Maximum measured 88.647 %, Maximum response 100 %, Minimum measured 23.774 %, R squared 0.436",> 6.25 µM
same,EC50,"[1]; Zika virus, VeroE6/TMPRSS2",> 1.85 µM
same,EC90,"[1]; Zika virus, VeroE6/TMPRSS2, Maximum measured 133.577 %, Minimum measured 80.808 %",> 1.85 µM
same,EC50,"[3]; Dengue virus, VeroE6/TMPRSS2",> 16.7 µM
same,EC90,"[3]; Dengue virus, VeroE6/TMPRSS2, Maximum measured 134.005 %, Minimum measured 55.42 %, P-gp concentration 2 uM, P-gp inhibitor Elacidar",> 16.7 µM
O=C(Nc1ccc2c(c1)CNC2)c1cc(F)cc2[nH]ncc12,EC50,[4]; Vero C1008,> 50 µM
same,EC90,"[4]; Vero C1008, Maximum measured 105.261 %, Minimum measured 100.126 %",> 50 µM
same,EC90,"[1]; Baseline response 0 %, EC90 CI (lower) 0.259 uM, EC90 CI (upper) 34.627 uM, Hill slope -1.703, Maximum measured 110.866 %, Maximum response 50 %, Minimum measured 3.647 %, R squared 0.44",39.5 µM
same,EC90,"[1]; Zika virus, VeroE6/TMPRSS2, Baseline response 0 %, Hill slope -2.726, Maximum measured 111.669 %, Maximum response 100 %, Minimum measured 14.076 %, R squared 0.547",> 50 µM
same,EC50,[1]; veroe6/tmprss2,25.4 µM and 10.9 µM
same,EC50,[2]; Vero C1008,25 µM
same,EC90,"[2]; Vero C1008, Baseline response 0 %, Hill slope 1.231, Maximum measured 66.562 %, Maximum response 100 %, Minimum measured -0.926 %, R squared 0.986",> 50 µM
same,EC50,"[3]; Dengue virus, VeroE6/TMPRSS2",> 50 µM
same,EC90,"[3]; Dengue virus, VeroE6/TMPRSS2, Maximum measured 176.33 %, Minimum measured 105.177 %, P-gp concentration 2 uM, P-gp inhibitor Elacidar",> 50 µM
O=C(Nc1ccc2c(c1)CNC2)c1cc(Br)cc2[nH]ncc12,EC50,[4]; Vero C1008,> 50 µM
same,EC90,"[4]; Vero C1008, Baseline response 0 %, Hill slope -0.471, Maximum measured 107.19 %, Maximum response 100 %, Minimum measured 78.588 %, R squared 0.089",> 50 µM
same,EC90,"[1]; Baseline response 0 %, EC90 CI (lower) 1.042 uM, EC90 CI (upper) 22.584 uM, Hill slope -2.906, Maximum measured 100.475 %, Maximum response 60 %, Minimum measured 3.913 %, R squared 0.559",22 µM
same,EC90,"[1]; Baseline response 0 %, Hill slope -0.436, Maximum measured 89.533 %, Maximum response 80 %, Minimum measured 16.256 %, R squared 0.57",> 50 µM
same,EC50,[1]; veroe6/tmprss2,3.73 µM and 10.3 µM
same,EC50,[2]; Vero C1008,> 50 µM
same,EC90,"[2]; Vero C1008, Baseline response 0 %, Hill slope 1.733, Maximum measured 40.291 %, Maximum response 100 %, Minimum measured -1.647 %, R squared 0.923",> 50 µM
same,EC50,"[3]; Dengue virus, VeroE6/TMPRSS2",> 50 µM
same,EC90,"[3]; Dengue virus, VeroE6/TMPRSS2, Maximum measured 186.968 %, Minimum measured 93.389 %, P-gp concentration 2 uM, P-gp inhibitor Elacidar",> 50 µM
O=C(NCc1ccc(F)cc1)[C@H](Nc1ccc2c(c1)CNC2)c1cc(Cl)cc2[nH]ncc12,EC50,[4]; Vero C1008,> 50 µM
same,EC90,"[4]; Vero C1008, Maximum measured 108.299 %, Minimum measured 100.399 %",> 50 µM
same,EC90,"[1]; Baseline response 0 %, EC90 CI (lower) 0.003 uM, EC90 CI (upper) 0.037 uM, Hill slope -0.964, Maximum measured 95.888 %, Maximum response 100 %, Minimum measured 15.187 %, R squared 0.753",0.949 µM
same,EC90,"[1]; Baseline response 0 %, Hill slope -0.072, Maximum measured 102.654 %, Maximum response 100 %, Minimum measured 56.434 %, R squared 0.024",> 16.7 µM
same,EC50,[2]; Vero C1008,> 50 µM
same,EC90,"[2]; Vero C1008, Maximum measured 1.197 %, Minimum measured -8.607 %",> 50 µM
same,EC50,"[3]; Dengue virus, VeroE6/TMPRSS2",> 50 µM
same,EC90,"[3]; Dengue virus, VeroE6/TMPRSS2, Maximum measured 150.332 %, Minimum measured 95.286 %, P-gp concentration 2 uM, P-gp inhibitor Elacidar",> 50 µM
O=C(Nc1ccc2c(c1)CNC2)c1cc(Cl)cc2ccncc12,EC50,[4]; Vero C1008,41.2 µM
same,EC90,"[4]; Vero C1008, Baseline response 0 %, Hill slope -2.845, Maximum measured 98.374 %, Maximum response 100 %, Minimum measured 34.264 %, R squared 0.76",> 50 µM
same,EC90,"[1]; Baseline response 0 %, EC90 CI (lower) 0.484 uM, EC90 CI (upper) 78.893 uM, Hill slope -5.004, Maximum measured 134.979 %, Maximum response 50 %, Minimum measured 2.857 %, R squared 0.323",14.9 µM
same,EC50,"[1]; Zika virus, VeroE6/TMPRSS2",16.1 µM
same,EC90,"[1]; Zika virus, VeroE6/TMPRSS2, Baseline response 0 %, Hill slope -17.627, Maximum measured 65.213 %, Maximum response 47.14 %, Minimum measured 8.096 %, R squared 0.51",18.3 µM
same,EC50,[1]; veroe6/tmprss2,9.59 µM
same,EC50,[2]; Vero C1008,3.67 µM
same,EC90,"[2]; Vero C1008, Baseline response 0 %, EC90 CI (lower) 1.242 uM, EC90 CI (upper) 28.049 uM, Hill slope 4.622, Maximum measured 165.724 %, Maximum response 100 %, Minimum measured 0.965 %, R squared 0.715",5.9 µM
same,EC50,"[3]; Dengue virus, VeroE6/TMPRSS2",> 50 µM
same,EC90,"[3]; Dengue virus, VeroE6/TMPRSS2, Maximum measured 58.239 %, Minimum measured 35.466 %, P-gp concentration 2 uM, P-gp inhibitor Elacidar",> 50 µM
same,EC90,"[3]; Dengue virus, VeroE6/TMPRSS2, Baseline response 0 %, Hill slope -1.704, Maximum measured 164.443 %, Maximum response 150 %, Minimum measured 48.079 %, P-gp concentration 2 uM, R squared 0.653, P-gp inhibitor Elacidar",> 50 µM
same,EC50,[3]; veroe6/tmprss2,29.3 µM
O=C1Cc2c(cc(Br)cc2C(=O)Nc2ccc3c(c2)CNC3)N1,EC50,[4]; Vero C1008,> 50 µM
same,EC90,"[4]; Vero C1008, Maximum measured 133.969 %, Minimum measured 97.1 %",> 50 µM
same,EC90,"[1]; Baseline response 0 %, EC90 CI (lower) 0.005 uM, EC90 CI (upper) 0.605 uM, Hill slope -0.732, Maximum measured 85.329 %, Maximum response 60 %, Minimum measured 3.582 %, R squared 0.614",21.3 µM
same,EC90,"[1]; Baseline response 0 %, Hill slope -0.686, Maximum measured 100.363 %, Maximum response 100 %, Minimum measured 5.777 %, R squared 0.778",> 50 µM
same,EC50,"[1]; Zika virus, VeroE6/TMPRSS2",2.09 µM
same,EC50,[1]; veroe6/tmprss2,1.06 µM
same,EC50,[2]; Vero C1008,7.52 µM
same,EC90,"[2]; Vero C1008, Baseline response 0 %, EC90 CI (lower) 4.323 uM, EC90 CI (upper) 45.141 uM, Hill slope 3.545, Maximum measured 169.819 %, Maximum response 100 %, Minimum measured -0.685 %, R squared 0.785",14 µM
same,EC50,"[3]; Dengue virus, VeroE6/TMPRSS2",> 50 µM
same,EC90,"[3]; Dengue virus, VeroE6/TMPRSS2, Maximum measured […], Minimum measured 159.027 %, P-gp concentration 2 uM, P-gp inhibitor Elacidar",> 50 µM
